Measured values from publication PMC11187126, “Structure and dynamics of the pyroglutamylated RF-amide peptide QRFP receptor GPR103” (Nature Communications, 2024).
Where two headings read alike, the source gives them in different places. No end group written: not given here.

Target: T1, GPR103 L14N-termA (Homo sapiens, UniProt Q96P65, L14A)
T1 construct: we used human full-length QRFPR-encoding plasmids; expressed in transfected cells; host or cells: HEK293 cells, pCAGGS vector
T1 sequence (Q96P65 1-431 L14A): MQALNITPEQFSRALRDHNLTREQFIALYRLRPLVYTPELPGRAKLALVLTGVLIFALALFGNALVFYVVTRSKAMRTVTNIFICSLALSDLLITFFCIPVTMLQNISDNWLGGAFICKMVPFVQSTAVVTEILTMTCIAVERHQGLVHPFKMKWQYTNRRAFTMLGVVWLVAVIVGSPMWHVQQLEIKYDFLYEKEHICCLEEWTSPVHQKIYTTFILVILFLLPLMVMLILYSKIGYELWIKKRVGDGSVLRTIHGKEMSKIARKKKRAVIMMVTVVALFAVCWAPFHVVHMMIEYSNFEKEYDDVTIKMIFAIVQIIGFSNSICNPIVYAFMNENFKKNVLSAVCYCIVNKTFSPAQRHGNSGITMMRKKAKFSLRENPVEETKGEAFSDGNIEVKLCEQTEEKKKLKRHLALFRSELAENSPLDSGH
Experiment: TGFα shedding assay; Exp. level WT (1:5)
Format: cell-based
Procedure: For the TGFα shedding assay and the flow cytometry analysis, we used human full-length QRFPR-encoding plasmids. Specifically, GPR103 was N-terminally modified with an HA signal sequence followed by a FLAG epitope and then a flexible linker ([…]; the FLAG epitope is underlined) and inserted into the pCAGGS vector. Plasmid encoding GPR103 mutants were generated using Quickchange Site-Directed Mutagensis kit (Agilent).
The TGFα shedding assay was performed as described previously with minor modifications. Plasmid transfection was performed in a 6-well plate with a mixture of 500 ng (per well in a 6-well plate) AP-TGFα-encoding plasmid and 200 ng GPR103-encoding plasmid. After 1-day culture, the transfected cells were harvested by trypsinization, pelleted by centrifugation at 190 × g for 5 min, and washed once with 5 mM HEPES (pH 7.4)-containing Hank’s Balanced Salt Solution (HBSS). After centrifugation, the cells were resuspended in 8 mL of the HEPES-containing HBSS. The cell suspension was seeded in a 96-well culture plate (cell plate) at a volume of 90 μL (per well hereafter) and incubated in a 37 °C incubator with 5% CO2 for 30 min. […] After spinning the cell plates at 190 × g for 2 min, 80 μL of conditioned media was transferred to an empty 96-well plate (conditioned media (CM) plate). Then, 80 μL of AP reaction solution (10 mM p-nitrophenylphosphate (p-NPP), 120 mM Tris-HCl (pH 9.5), 40 mM NaCl, and 10 mM MgCl2) was dispensed into the cell plates and the CM plates. Absorbance at 405 nm of the plates was measured using a microplate reader (SpectraMax 340 PC384, Molecular Devices) before and after 1-h incubation at room temperature. Ligand-induced AP-TGFα release was calculated by subtracting spontaneous AP-TGFα release signal from ligand-induced AP-TGFα release signal. The AP-TGFα release signals were fitted to a four-parameter sigmoidal concentration–response curve, using the Prism 10 software (GraphPad Prism). For each replicate experiment, the pEC50 parameter (negative logarithmic values of EC50 values) of the individual GPR103 mutants were normalized to that of the wild-type GPR103 performed in parallel, and resulting ∆pEC50 values were used to denote ligand response activity of the mutants. […]
Exp. le vel: WT (1:5 0)Exp. le vel: WT (1:5 0)Exp. le vel: WT (1:5 0)Exp. le vel: WT (1:2 0)Exp. le vel: WT (1:2 0)Exp. le vel: WT (1:1 0) […]
L1 4N - t e r mA F2 5N - t e r mA I 2 6N - t e r mA Y 2 9N - t e r mA C 9 82 .5 7A T10 22 .6 1A Exp . l eve l: WT (1 :5)Exp . l evel : >WT (1 :1)Exp. le vel: WT (1:2 0)Exp. le vel: WT (1:2 0)Exp. le vel: WT (1:5 0)Exp . l eve l: WT (1 :1) […]
Exp. le vel: WT (1:1 0)Exp. le vel: WT (1:2 0) C 1 1 83 .2 5AExp. le vel: WT (1:5 0)Exp. le vel: WT (1:5 0)Exp. le vel: WT (1:2 0)Exp . l eve l: WT (1 :5) […]
Exp. le vel: WT (1:5 0)Exp. le vel: WT (1:1 0)Exp. le vel: WT (1:5 0) E203ECL2AExp . l evel : >WT (1 :1)Exp. le vel: WT (1:5 0)Exp. le vel: WT (1:5 0) […]
Exp . l eve l: WT (1 :1) F28Exp. le vel: WT (1:5 0) C 2 8 56 .4 7AExp. le vel: WT (1:2 0) WExp. le vel: WT (1:2 0) F28Exp. le vel: WT (1:5 0)Exp . l evel : >WT (1 :1) […]
Exp. le vel: WT (1:5 0)Exp. le vel: WT (1:5 0) C 3 2 77 .4 8AExp . l eve l: WT (1 :5)Exp . l evel : >WT (1 :1)Exp . l evel : >WT (1 :1) […]
Suppl eme nt ary Figure 1 | Mutational analysis of GPR103. […]
mutants. Data are presented as mean values ± SEM, normally n=3-5; dots), each performed in triplicate. b-d Cell-surface expression (b) and QRFP26-in-duced activation of GPR103 (c, d) were analyzed by the flow cytometry and the TGFα shedding assay, respectively. From the concentration–response curves (a), Emax (c) and ΔpEC50 (d) values relative to the wild type were calculated. Colors in the mutant bars indicate an expression level matching to that of titrated wild type. Statistical analyses were performed using the ordinary one-way ANOVA followed by Dunnett tests with the expression-matched […]

Substance: TSGPLGNLAEELNGYSRKKGGFSFRF-NH2 [QRFP26]
- Emax (Exp. #1): 105.09 % WT
- Emax (Exp. #2): 97.15 % WT
- Emax (Exp. #3): 104.38 % WT
- Emax (mean, read-out: Emax): 102%
- EC50 (n = 3): 7.59 nM
- Emax (n = 3, read-out: Emax): 106 ± 2.1%
